From US12227520B2 (priority 2019, dated 2025)
pEC50: −log10 of the molar value. Like-named read-outs stand apart in the source and are kept apart here.

How the values were obtained:
HIV-1 (IIIB) = test: Antiviral assay in MT-4 cells (HIV MT-4 antiviral assay); assay type: cell-based; conditions: Human immunodeficiency virus 1, IIIB, MT4, 120 h, HIV-1 (IIIB) in MT-4 cells, 5 days incubation; read-out: EC50
How it was run: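 MT-4 cells infected with HIV-1 IIIB (1:250 diluted stock) and exposed to 1:3 serially diluted compound in RPMI with 10% FBS. Viability read by CellTiter-Glo luminescence after 5 days at 37° C; mock-infected cells and 5 μM AZT as controls.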

[1] = Cytotoxicity assay in MT-4 cells; assay type: cell-based, human; conditions: human, uninfected MT-4 cells, 5 days incubation; read-out: CC50
How it was run: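 Infected MT-4 cells (HIV-1 IIIB, fresh 1:250 dilution of concentrated stock) or mock-infected cells exposed to compounds for 5 days at 37 °C. Viability by CellTiter-Glo luminescence; 5 μM AZT positive control, no-drug negative control. Uninfected cells used for cytotoxicity, with 10 μM puromycin as base-level cytotoxicity control.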

pLai RLuc reporter virus = test: microbe, parasite or virus in culture; assay type: cell-based, HIV; conditions: Human immunodeficiency virus 1, 72 h
How it was run: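 MT-4 cells pre-infected 2 h at 37 °C with pLai RLuc virus, then exposed to 1:3 serial dilutions of compound in RPMI/10% FBS with or without 50% human serum for 72 h at 37 °C. Renilla luminescence read-out; serum shift = EC50(HS/CCM)/EC50(CCM).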

[2] = read-out: Antiviral Serum Shift RLuc 50% HS, HS/CCM (RPMI media, 10% FBS, 50% HS, 1% P/S), 72-h incubation
[3] = read-out: Antiviral Serum Shift RLuc CCM, CCM (RPMI media, 10% FBS, 1% P/S), 72-h incubation

SMILES | pEC50 (HIV-1 (IIIB)) | CC50 at 5 days [1] | pEC50 (pLai RLuc reporter virus; [2]) | pEC50 (pLai RLuc reporter virus; [3])
O=C(NCc1ccc(F)cc1F)c1cn2c(c(O)c1=O)C(=O)N1C[C@@H]2CCC(F)(F)C1 [Example 4-2, (7S)-N-(2,4-difluorobenzyl)-4,4-difluoro-12-hydroxy-1,11-dioxo-1,4,5,6,7,11-hexahydro-3H-2,7-methanopyrido[1,2-a][1,4]diazonine-10-carboxamide] | 8.32 | 10700 nM | 8.36 | 8.95
O=C(NCc1c(F)cc(F)cc1F)c1cn2c(c(O)c1=O)C(=O)N1C[C@@H]2C[S+]([O-])c2ccccc21 (stereo partly drawn) [Example 95, (6R)-1-hydroxy-2,14-dioxo-N-(2,4,6-trifluorobenzyl)-2,6,7,14-tetrahydro-6,13-methanobenzo[b]pyrido[2,1-f][1,4,7]thiadiazonine-3-carboxamide 8-oxide] | 7.50 | > 50000 nM | 8.32 | 8.29
O=C(NCc1ccc(F)cc1F)c1cn2c(c(O)c1=O)C(=O)N1CC[C@@H](F)C[C@H]2C1 [Example 56-2, (5R,7S)—N-(2,4-difluorobenzyl)-5-fluoro-12-hydroxy-1,11-dioxo-1,4,5,6,7,11-hexahydro-3H-2,7-methanopyrido[1,2-a][1,4]diazonine-10-carboxamide] | 8.73 | 17800 nM | 8.97 | 9.40
O=C(NCc1c(F)cc(F)cc1F)c1cn2c(c(O)c1=O)C(=O)N1CC[C@H](F)CC[C@H]2C1 [Example 81-1, (5R,8S)-5-fluoro-13-hydroxy-1,12-dioxo-N-(2,4,6-trifluorobenzyl)-1,3,4,5,6,7,8,12-octahydro-2,8-methanopyrido[1,2-a][1,4]diazecine-11-carboxamide] | 8.71 | 23900 nM | 9.19 | 9.33
O=C(NCc1ccc(F)cc1F)c1cn2c(c(O)c1=O)C(=O)N1CC/C=C\C[C@@H]2C1 [Example 44-1, (8R,Z)—N-(2,4-difluorobenzyl)-13-hydroxy-1,12-dioxo-1,3,4,7,8,12-hexahydro-2,8-methanopyrido[1,2-a][1,4]diazecine-11-carboxamide] | 8.77 | 10700 nM | 8.63 | 9.17
O=C(NCc1c(F)cc(F)cc1F)c1cn2c(c(O)c1=O)C(=O)N1CCCC[C@@]2(CF)C1 [Example 163-1, (7S)—N-(2,4,6-trifluorobenzyl)-7-(fluoromethyl)-12-hydroxy-1,11-dioxo-1,4,5,6,7,11-hexahydro-3H-2,7-methanopyrido[1,2-a][1,4]diazonine-10-carboxamide] | 8.90 | 20200 nM | 7.92 | 10.17
O=C(NCc1ccc(F)c(Cl)c1F)c1cn2c(c(O)c1=O)C(=O)N1CCCC(F)(F)[C@@H]2C1 (single isomer, unassigned) [Example 117-2] | 8.45 | 15700 nM | 5.90 | 9.22
O=C(NCc1c(F)cc(F)cc1F)c1cn2c(c(O)c1=O)C(=O)N1CCC=C(F)[C@H]2C1 (single isomer, unassigned) [Example 75-2] | 8.68 | 26000 nM | 8.66 | 9.33
O=C(NCc1ccc(F)cc1F)c1cn2c(c(O)c1=O)C(=O)N1CCC=C[C@H]2C1 [Example 169, (7S)—N-(2,4-difluorobenzyl)-12-hydroxy-1,11-dioxo-1,4,7,11-tetrahydro-3H-2,7-methanopyrido[1,2-a][1,4]diazonine-10-carboxamide] | 8.85 | 11800 nM | 8.54 | 9.49
C[C@@H]1CC[C@H](C)[C@@H]2CN1C(=O)c1c(O)c(=O)c(C(=O)NCc3c(F)cc(F)cc3F)cn12 [Example 151-1, (3R,6S,7R)-12-hydroxy-3,6-dimethyl-1,11-dioxo-N-(2,4,6-trifluorobenzyl)-1,4,5,6,7,11-hexahydro-3H-2,7-methanopyrido[1,2-a][1,4]diazonine-10-carboxamide] | 8.37 | 14700 nM | 5.94 | 9.14
C[C@@H]1CCC[C@@H]2CN1C(=O)c1c(O)c(=O)c(C(=O)NCc3ccc(F)cc3F)cn12 [Example 52-3, (3R, 7R)—N-(2,4-difluorobenzyl)-12-hydroxy-3-methyl-1,11-dioxo-1,4,5,6,7,11-hexahydro-3H-2,7-methanopyrido[1,2-a][1,4]diazonine-10-carboxamide] | 8.52 | 15500 nM | 6.94 | 9.23
O=C(NCc1ccc(F)cc1F)c1cn2c(c(O)c1=O)C(=O)N1CCCC3(CC3)[C@@H]2C1 [Example 57-2, (7′R)—N-(2,4-difluorobenzyl)-12′-hydroxy-1′,11′-dioxo-1′,4′,5′,11′-tetrahydro-3′H,7′H-spiro[cyclopropane-1,6′-[2,7]methanopyrido[1,2-a][1,4]diazonine]-10′-carboxamide] | 8.75 | 8910 nM | 6.88 | 9.40
O=C(NCc1ccc(F)cc1F)c1cn2c(c(O)c1=O)C(=O)N1CCCC[C@H]2C1 (single isomer, unassigned) [Example 25-2] | 8.83 | 10800 nM | 8.94 | 9.55
C[C@H]1C(F)=CC[C@H]2CN1C(=O)c1c(O)c(=O)c(C(=O)NCc3c(F)cc(F)cc3F)cn12 [Example 154-1, (3S,7S)-4-fluoro-12-hydroxy-3-methyl-1,11-dioxo-N-(2,4,6-trifluorobenzyl)-1,6,7,11-tetrahydro-3H-2,7-methanopyrido[1,2-a][1,4]diazonine-10-carboxamide] | 8.78 | 25700 nM | 8.37 | 9.53
O=C(NCc1c(F)cc(F)cc1F)c1cn2c(c(O)c1=O)C(=O)N1CCOC[C@H]2C1 [Example 20, (7R)-12-Hydroxy-1,11-dioxo-N-(2,4,6-trifluorobenzyl)-1,3,4,6,7,11-hexahydro-2,7-methanopyrido[1,2-d][1,4,7]oxadiazonine-10-carboxamide] | 8.25 | 37200 nM | 7.48 | 8.74
O=C(NCc1cccc(F)c1F)c1cn2c(c(O)c1=O)C(=O)N1CCCC[C@H]2C1 [Example 160, (7S)—N-(2,3-difluorobenzyl)-12-hydroxy-1,11-dioxo-1,4,5,6,7,11-hexahydro-3H-2,7-methanopyrido[1,2-a][1,4]diazonine-10-carboxamide] | 8.82 | 11400 nM | 8.92 | 9.43
C[C@@H]1N2C[C@H](CCC1(F)F)n1cc(C(=O)NCc3c(F)cc(F)cc3F)c(=O)c(O)c1C2=O [Example 154-2, (3S,7S)-4,4-difluoro-12-hydroxy-3-methyl-1,11-dioxo-N-(2,4,6-trifluorobenzyl)-1,4,5,6,7,11-hexahydro-3H-2,7-methanopyrido[1,2-a][1,4]diazonine-10-carboxamide] | 8.71 | 15200 nM | 8.15 | 9.51
O=C(NCc1c(F)cc(F)cc1F)c1cn2c(c(O)c1=O)C(=O)N1Cc3ccc(Cl)cc3C[C@H]2C1 (single isomer, unassigned) [Example 127-1] | 8.86 | 5630 nM | 8.53 | 9.49
